Measurements: patent publication US3972872A, “6-[α-(ω-Guanidinoalkanoylamido)acylamido]penicillanic acids” (Pfizer Inc., priority 1975, dated 1976)
≈ marks a conversion by molar mass, not a printed value. Where two headings read alike, the source gives them in different places.

How the values were obtained:
E. coli 266 = experiment: In vitro MIC, E. coli 266, two-fold serial dilution; format: cell-based, Escherichia coli; conditions: unit assumed
Text: (§1) The in vitro spectra of a number of 6-[α-(ω-guanidinoalkanoylamido)acylamido]penicillanic acids of this invention against certain gram-negative bacteria are presented in Table I below. […] Th compounds of Table I have the formula

Pseudo. aeruginosa 104 = experiment: In vitro MIC, Pseudo. aeruginosa 104; format: cell-based, Pseudomonas aeruginosa; conditions: unit assumed
Text: as §1

Pseudo. aeruginosa 173 = experiment: In vitro MIC, Pseudo. aeruginosa 173; format: cell-based, Pseudomonas aeruginosa; conditions: unit assumed
Text: as §1

Pseudo. aeruginosa 490 = experiment: In vitro MIC, Pseudo. aeruginosa 490; format: cell-based, Pseudomonas aeruginosa; conditions: unit assumed
Text: as §1

Proteus vulgaris A059 = experiment: In vitro MIC, Proteus vulgaris A059; format: cell-based; conditions: unit assumed
Text: as §1

Proteus rettgeri B006 = experiment: In vitro MIC, Proteus rettgeri B006; format: cell-based; conditions: unit assumed
Text: (§2) The in vitro activity of the herein-described compounds renders them useful for topical application in the form of ointments, creams and the like, or for sterilization purposes, e.g., sick room utensils.
as §1

Proteus mirabilis C015 = experiment: In vitro MIC, Proteus mirabilis C015; format: cell-based; conditions: unit assumed
Text: as §1

Proteus mirabilis C020 = experiment: In vitro MIC, Proteus mirabilis C020; format: cell-based; conditions: unit assumed
Text: as §2, §1

Serratia marcescens A001 = experiment: In vitro MIC, Serratia marcescens A001; format: cell-based; conditions: unit assumed
Text: as §1

Escherichia coli 266 = experiment: In vivo protection of mice versus Escherichia coli 266; conditions: Escherichia coli, 266, sc, 96 h, read-out: % Protection
Text: (§3) Additionally, the compounds of this invention are active versus gram-positive and gram-negative bacteria in vivo via the parenteral route of administration in animals, including man. Their in vivo activity in animals, including man, by the oral route of administration is more limited as regards susceptible organisms. Nevertheless, oral in vivo activity against Escherichia coli and Staphylococcus aureus is a common property of many compounds of this invention. Table II below presents the comparative in vivo spectra of several compounds within the scope of this invention against D-α-aminobenzylpenicillin (Ampicillin).
(§4) The acute systemic infections in mice were produced by the intraperitoneal inoculation of standardized cultures suspended in 5% hog gastric mucin. Treatment with the drugs was initiated 0.5 hours after inoculation of the infecting organism. A second dose was administered 4 hours later. The PD50 values were calculated after a hold period of 4 days.

E. coli = experiment: PD50 versus acute systemic E. coli infection in mice; format: in vivo; conditions: for ED50: Escherichia coli, 96 h, E. coli, mice
Text: as §3, §4

S. aureus = experiment: PD50 versus acute systemic S. aureus infection in mice; format: in vivo; conditions: for ED50: Staphylococcus aureus, 96 h, S. aureus, mice
Text: as §3, §4

P. aeruginosa = experiment: PD50 versus acute systemic P. aeruginosa infection in mice; format: in vivo; conditions: for ED50: Pseudomonas aeruginosa, 96 h, read-out: PD50; for activity against Pseudomonas aeruginosa (in words): in vivo
Text: as §3, §4

[1] = Serum levels in dogs, single intramuscular dose; conditions: for Serum Levels: intramuscular 25 mg./kg.
[2] = Urine levels and urinary recovery in dogs, single intramuscular dose
in vivo = conditions: dog, im, 25 mg/kg
[3] = 50 mg./kg., mice, subcutaneous route

SMILES: CC1(C)S[C@@H]2[C@H](NC(=O)[C@H](NC(=O)C3CCC(NC(=N)N)CC3)c3ccccc3)C(=O)N2[C@H]1C(=O)O (stereo partly drawn) [NH--C(NH)NH2 [3rd of 4], R=H]
- MIC (E. coli 266): 6.25 µg/mL (≈ 12.1 µM)
- MIC (Pseudo. aeruginosa 104): 3.12 µg/mL (≈ 6.04 µM)
- MIC (Pseudo. aeruginosa 173): 1.56 µg/mL (≈ 3.02 µM)
- MIC (Pseudo. aeruginosa 490): 6.25 µg/mL (≈ 12.1 µM)
- MIC (Proteus vulgaris A059): 50 µg/mL (≈ 96.8 µM)
- MIC (Proteus rettgeri B006): 50 µg/mL (≈ 96.8 µM)
- MIC (Proteus mirabilis C015): 6.25 µg/mL (≈ 12.1 µM)
- MIC (Proteus mirabilis C020): 25 µg/mL (≈ 48.4 µM)
- MIC (Serratia marcescens A001): 12.5 µg/mL (≈ 24.2 µM)
- responders at 50 mg/kg (Escherichia coli 266; [3]): 50%

SMILES: CC1(C)S[C@@H]2[C@H](NC(=O)[C@H](NC(=O)CNC(=N)N)c3ccccc3)C(=O)N2[C@H]1C(=O)O [A, 6-[D-2-Phenyl-2-(Guanidinoacetamido)Acetamido]Penicillanic Acid]
- MIC (E. coli 266): 1.56 µg/mL (≈ 3.48 µM)
- MIC (Pseudo. aeruginosa 104): 1.56 µg/mL (≈ 3.48 µM)
- MIC (Pseudo. aeruginosa 173): 1.56 µg/mL (≈ 3.48 µM)
- MIC (Pseudo. aeruginosa 490): 1.56 µg/mL (≈ 3.48 µM)
- MIC (Proteus vulgaris A059): 1.56 µg/mL (≈ 3.48 µM)
- MIC (Proteus rettgeri B006): 12.5 µg/mL (≈ 27.9 µM)
- MIC (Proteus mirabilis C015): 1.56 µg/mL (≈ 3.48 µM)
- MIC (Proteus mirabilis C020): 1.56 µg/mL (≈ 3.48 µM)
- MIC (Serratia marcescens A001): 6.25 µg/mL (≈ 13.9 µM)
- responders at 50 mg/kg (Escherichia coli 266): 100%
- ED50 (E. coli; oral): 50 mg/kg
- ED50 (E. coli; sc, subcutaneous): 6 mg/kg
- in vivo oral activity against E. coli (in words) (E. coli; oral): dual in vivo activity
- ED50 (S. aureus; oral): 68 mg/kg
- ED50 (S. aureus; sc, subcutaneous): 13 ± 3.9 mg/kg
- in vivo oral activity against S. aureus (in words) (S. aureus; oral): dual in vivo activity
- ED50 (P. aeruginosa; po): > 200 mg/kg
- ED50 (P. aeruginosa; sc): 41 ± 13 mg/kg
- activity against Pseudomonas aeruginosa (in words) (P. aeruginosa; mice): active
- concentration at 1 h ([1]; dog, serum, im, 0.05 mg/kg): 78 µg/mL
- concentration at 2 h ([1]; dog, serum, im, 0.05 mg/kg): 48 µg/mL
- concentration at 0.5 h ([1]; dog, serum, im, 25 mg/kg): 30.4 µg/mL
- concentration at 1 h ([1]; dog, serum, im, 25 mg/kg): 26.2 µg/mL
- concentration at 2 h ([1]; dog, serum, im, 25 mg/kg): 10.3 µg/mL
- concentration at 3 h ([1]; dog, serum, im, 25 mg/kg): 2.1 µg/mL
- Serum Levels ([1]; dogs, 0 hours): 0 ng/mL
- Serum Levels ([1]; dogs, 4 hours): 0 ng/mL
- Serum Levels ([1]; dogs, 6 hours): 0 ng/mL
- blood levels of drug compared with [B] (in words) ([1]; parenteral, dogs): clearly superior
- concentration at 0.5 h ([2]; dog, urine, im, 25 mg/kg): 366 µg/mL
- concentration at 1 h ([2]; dog, urine, im, 25 mg/kg): 710 µg/mL
- concentration at 2 h ([2]; dog, urine, im, 25 mg/kg): 1020 µg/mL
- concentration at 3 h ([2]; dog, urine, im, 25 mg/kg): 554 µg/mL
- concentration at 4 h ([2]; dog, urine, im, 25 mg/kg): 219 µg/mL
- concentration at 5 h ([2]; dog, urine, im, 25 mg/kg): 130 µg/mL
- dose excreted ([2]; dog, urine, im, 25 mg/kg): 35.4%
- Concentrations in Urine ([2]; dogs, intramuscular 25 mg./kg., 0 hours): 0 ng/mL
- total urinary recovery of drug compared with [B] (in words) ([2]; parenteral, dogs): clearly superior

SMILES: CC1(C)S[C@@H]2[C@H](NC(=O)[C@H](NC(=O)c3cccc(NC(=N)N)c3)c3ccccc3)C(=O)N2[C@H]1C(=O)O [NH--C(NH)NH2 [2nd of 4], R=H]
- MIC (E. coli 266): 3.12 µg/mL (≈ 6.11 µM)
- MIC (Pseudo. aeruginosa 104): 1.56 µg/mL (≈ 3.06 µM)
- MIC (Pseudo. aeruginosa 173): 1.56 µg/mL (≈ 3.06 µM)
- MIC (Pseudo. aeruginosa 490): 0.78 µg/mL (≈ 1.53 µM)
- MIC (Proteus vulgaris A059): 3.12 µg/mL (≈ 6.11 µM)
- MIC (Proteus rettgeri B006): 12.5 µg/mL (≈ 24.5 µM)
- MIC (Proteus mirabilis C015): 6.25 µg/mL (≈ 12.2 µM)
- MIC (Proteus mirabilis C020): 25 µg/mL (≈ 49 µM)
- MIC (Serratia marcescens A001): 12.5 µg/mL (≈ 24.5 µM)
- responders at 50 mg/kg (Escherichia coli 266; [3]): 60%

SMILES: CC1(C)S[C@@H]2[C@H](NC(=O)[C@H](NC(=O)CNC3=NCCN3)c3ccccc3)C(=O)N2[C@H]1C(=O)O [CH2 NH--.angle..vertline., R=H, 6-[D-2-Phenyl-2-(2-Imidazolinylaminoacetamido)Acetamido]Penicillanic Acid]
- MIC (E. coli 266): 12.5 µg/mL (≈ 26.3 µM)
- MIC (Pseudo. aeruginosa 104): 6.25 µg/mL (≈ 13.2 µM)
- MIC (Pseudo. aeruginosa 173): 3.12 µg/mL (≈ 6.57 µM)
- MIC (Pseudo. aeruginosa 490): 3.12 µg/mL (≈ 6.57 µM)
- MIC (Proteus vulgaris A059): 3.12 µg/mL (≈ 6.57 µM)
- MIC (Proteus rettgeri B006): 100 µg/mL (≈ 211 µM)
- MIC (Proteus mirabilis C015): 3.12 µg/mL (≈ 6.57 µM)
- MIC (Proteus mirabilis C020): 6.25 µg/mL (≈ 13.2 µM)
- MIC (Serratia marcescens A001): 25 µg/mL (≈ 52.7 µM)
- responders at 50 mg/kg (Escherichia coli 266): 90%

SMILES: CC1(C)S[C@@H]2[C@H](NC(=O)[C@H](NC(=O)NC(=N)N)c3ccccc3)C(=O)N2[C@H]1C(=O)O [B, 6-[D-2-phenyl-2-(3-guanylureido)acetamido]penicillanic acid]
- MIC (E. coli 266): 3.1 µg/mL (≈ 7.13 µM)
- MIC (Pseudo. aeruginosa 104): 2.5 µg/mL (≈ 5.75 µM)
- MIC (Pseudo. aeruginosa 173): 1.5 µg/mL (≈ 3.45 µM)
- MIC (Pseudo. aeruginosa 490): 1.5 µg/mL (≈ 3.45 µM)
- MIC (Proteus vulgaris A059): 1.56 µg/mL (≈ 3.59 µM)
- MIC (Proteus mirabilis C015): 0.78 µg/mL (≈ 1.8 µM)
- MIC (Serratia marcescens A001): 6.25 µg/mL (≈ 14.4 µM)
- responders at 50 mg/kg (Escherichia coli 266; [3]): 100%
- ED50 (E. coli; oral): > 200 mg/kg
- ED50 (E. coli; sc, subcutaneous): 15 ± 6.5 mg/kg
- in vivo oral activity against E. coli (in words) (E. coli; oral): lacks oral activity
- ED50 (S. aureus; oral): > 100 mg/kg
- ED50 (S. aureus; sc, subcutaneous): 18 ± 9.8 mg/kg
- in vivo oral activity against S. aureus (in words) (S. aureus; oral): lacks oral activity
- ED50 (P. aeruginosa; P. aeruginosa, oral, mice): > 200 mg/kg
- ED50 (P. aeruginosa; sc, P. aeruginosa, subcutaneous, mice): 41 ± 13 mg/kg
- activity against Pseudomonas aeruginosa (in words) (P. aeruginosa; mice): active
- concentration at 0.5 h (in vivo): 3.5 µg/mL
- concentration at 1 h (in vivo): 3.6 µg/mL
- concentration at 2 h (in vivo): 0.8 µg/mL

SMILES: CC1(C)S[C@@H]2[C@H](NC(=O)[C@H](NC(=O)c3ccc(NC(=N)N)cc3)c3ccccc3)C(=O)N2[C@H]1C(=O)O [NH--C(NH)NH2 [1st of 4], R=H]
- MIC (E. coli 266): 3.12 µg/mL (≈ 6.11 µM)
- MIC (Pseudo. aeruginosa 104): 0.78 µg/mL (≈ 1.53 µM)
- MIC (Pseudo. aeruginosa 173): 0.78 µg/mL (≈ 1.53 µM)
- MIC (Pseudo. aeruginosa 490): 0.78 µg/mL (≈ 1.53 µM)
- MIC (Proteus vulgaris A059): 6.25 µg/mL (≈ 12.2 µM)
- MIC (Proteus rettgeri B006): 25 µg/mL (≈ 49 µM)
- MIC (Proteus mirabilis C015): 3.12 µg/mL (≈ 6.11 µM)
- MIC (Proteus mirabilis C020): 12.5 µg/mL (≈ 24.5 µM)
- MIC (Serratia marcescens A001): 3.12 µg/mL (≈ 6.11 µM)
- responders at 50 mg/kg (Escherichia coli 266; [3]): 10%

SMILES: CC1(C)S[C@@H]2[C@H](NC(=O)[C@H](NC(=O)CCNC(=N)N)c3ccccc3)C(=O)N2[C@H]1C(=O)O [CH2 CH2 NH--C(NH)NH2, R=H, 6-[D-2-Phenyl-2-(Guanidinopropionamido)Acetamido]Penicillanic Acid]
- MIC (E. coli 266): 3.12 µg/mL (≈ 6.75 µM)
- MIC (Pseudo. aeruginosa 104): 6.25 µg/mL (≈ 13.5 µM)
- MIC (Pseudo. aeruginosa 173): 3.12 µg/mL (≈ 6.75 µM)
- MIC (Pseudo. aeruginosa 490): 3.12 µg/mL (≈ 6.75 µM)
- MIC (Proteus vulgaris A059): 3.12 µg/mL (≈ 6.75 µM)
- MIC (Proteus rettgeri B006): 50 µg/mL (≈ 108 µM)
- MIC (Proteus mirabilis C015): 0.78 µg/mL (≈ 1.69 µM)
- MIC (Proteus mirabilis C020): 12.5 µg/mL (≈ 27 µM)
- MIC (Serratia marcescens A001): 6.25 µg/mL (≈ 13.5 µM)
- responders at 50 mg/kg (Escherichia coli 266; [3]): 70%
